Experimental data as given in paper PMC3514216, “SRC Homology 2 Domain Binding Sites in Insulin, IGF-1 and FGF receptor mediated signaling networks reveal an extensive potential interactome” (Cell Communication and Signaling : CCS, 2012).
Substitutions are numbered along the chain they refer to.

Columns and labels:
Sh2d1b SH2 domain = Sh2d1b SH2 domain (Homo sapiens, UniProt O14796); experiment: SPOT peptide array; assay type: binding; settings: GST-SH2 0.25 μM, membrane-bound peptide, 1 mM DTT, LiCor read-out
Excerpt: (§1) The use of addressable peptide arrays is a reproducible and semi-quantitative approach that has been extensively validated for studying protein interactions with peptide ligands. To investigate connections between SH2 domain proteins and their putative phosphorylated docking sites on cell surface receptors, we developed addressable arrays consisting of 192 phosphotyrosine peptides. This peptide set was assembled using 71 phosphotyrosine peptide motifs corresponding to all of the cytoplasmic tyrosine residues within the FGF receptors (FGFR1-4), insulin receptor (InsR) and IGF-1 receptor (IGF-1R) (Figure 1A). Activation of these receptors results in the phosphorylation of associated scaffold proteins, and so 75 phosphotyrosine peptides corresponding to a comprehensive list of tyrosine residues within insulin receptor substrates (IRS-1 and IRS-2) and fibroblast receptor substrates (FRS-2 and FRS-3) were included. In addition, 33 phosphotyrosine peptides were incorporated from the downstream signaling proteins PLC-γ1, p130Cas (BCAR1) and p62DOK1. […] These control peptides provide a reference and establish the empirical cut-off for designated binding interactions (Table 1). No discrimination was made against peptides on the basis of reported phosphorylation state in order to examine a diverse and unbiased set of motifs. The resulting set of 192 phosphotyrosine peptides and their corresponding position in the proteins of origin is noted in Additional file 1: Table S1. Addressable arrays were synthesized as membrane-bound 11-mer peptides using the SPOT synthesis technique. While the majority of SH2 domains recognize residues C-terminal to the phosphotyrosine in their cognate peptide ligands, additional contacts between SH2 domains and residues N-terminal to the phosphotyrosine are observed for the SH2 domain of Sh2d1a (SAP) and cannot be ruled out in other cases. Peptides were synthesized with six flanking residues C-terminal to the phosphotyrosine and four residues N-terminal to the phosphotyrosine.
(§2) SH2 domains were arrayed as GST fusion proteins and detected using anti-GST primary antibodies and near-infrared labeled secondary antibodies. In an effort to present a dataset with minimal false positives, we chose an empirical cutoff based on the array average across all peptide spots to classify interactions (Figure 1A). In cases where the intensity of the signal for an individual SH2-domain binding event exceeded the mean intensity of all the peptides on the membrane by three-fold were scored as “array positives” [22]. Non-binding was judged in cases where the intensity of a spot was less than the mean intensity of all spots on the membrane and these were scored as “array negatives”. Peptides with signal intensities between 1X and 3X mean were scored as “indeterminate” and ascribed as neither array positive binding interactions nor array-negative non-binders. […] This signature may be indicative of promiscuity differences between phosphopeptides or there may be a subset of peptides which interact in a nonspecific fashion with either the GST fusion tag or one of the antibodies used for detection, resulting in false positives. Consistent with our goal of reducing the errors associated with identifying false-positives, we probed three separate arrays with three separate preps of the GST fusion tag alone. Potentially non-specificly interacting peptides (so-called ‘sticky’ peptides) were identified as any that bound to GST with above mean intensity in two out of three separate trials. This approach identifies any peptides which interact with GST or either of the recognition antibodies, a known confounding factor for downstream analysis. This conservative approach allows us to score many significant peptides as ‘binders’ which may have been indeterminate before when incorporating the ‘sticky’ peptides into the array average. […]

panel of 50 SH2 domains = experiment: SPOT peptide array probed with each of 50 GST-SH2 domains; assay type: binding; settings: SH2 domains with intensity >3X array mean; GST-SH2 0.25 μM, 1 mM DTT
Outline: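 Each GST-fused SH2 domain was overlaid on 192 membrane-synthesized pTyr peptides (11-mers, 4 N-terminal and 6 C-terminal flanking residues) and read with anti-GST and near-infrared secondary antibodies. Binding called relative to membrane mean intensity (>3× positive, <1× negative); GST-only probes defined nonspecific peptides.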

Nck1 SH2 domain = Nck1 SH2 domain (Homo sapiens, UniProt P16333); experiment: SPOT peptide array; assay type: binding; settings: GST-SH2 0.25 μM, membrane-bound peptide, 1 mM DTT, LiCor read-out
Excerpt: as §1, §2

Abl1 SH2 domain = molecular target: T1, Abl1 SH2 domain (Homo sapiens, UniProt P00519); experiment: SPOT peptide array; assay type: binding; settings: GST-SH2 0.25 μM, membrane-bound peptide, 1 mM DTT, LiCor read-out
T1 sequence (P00519 127-217 limits assumed): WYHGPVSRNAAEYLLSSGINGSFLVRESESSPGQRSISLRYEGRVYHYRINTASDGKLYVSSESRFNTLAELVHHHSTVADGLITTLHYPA
Excerpt: as §1, §2

Abl2 SH2 domain [1] = molecular target: T2, Abl2 SH2 domain (Homo sapiens, UniProt P42684); design: method as in earlier work; settings: SH2 protein microarray; N.B. = non binding; read-out: Protein Microarray (Macbeath) – KD; cited from earlier work
T2 sequence (P42684 173-263 limits assumed): T1 sequence (P00519 127-217 limits assumed) with N9S, G18L, R35L, A53T, S54A, L58V, S61T, S62A, N67S, I84V

Grb2 SH2 domain = Grb2 SH2 domain (Homo sapiens, UniProt P62993); design: method as in earlier work; settings: SH2 protein microarray; N.B. = non binding; read-out: Protein Microarray (Macbeath) – KD; cited from earlier work
Abl2 SH2 domain [2] = molecular target: T2, Abl2 SH2 domain; experiment: SPOT peptide array; assay type: binding; settings: spot intensity as factor of array mean; GST-SH2 0.25 μM
Excerpt: as §1, §2

Crk SH2 domain = Crk SH2 domain (Homo sapiens, UniProt P46108); experiment: SPOT peptide array; assay type: binding; settings: spot intensity as factor of array mean; GST-SH2 0.25 μM
Excerpt: as §1, §2

CrkL SH2 domain = CrkL SH2 domain (Homo sapiens, UniProt P46109); experiment: SPOT peptide array; assay type: binding; settings: spot intensity as factor of array mean; GST-SH2 0.25 μM
Excerpt: as §1, §2

Shc1 SH2 domain = molecular target: T3, Shc1 SH2 domain (Homo sapiens, UniProt P29353); design: method as in PMID 7544002; settings: read-out: Affinity (KD); cited from earlier work
T3 sequence (P29353 488-579 limits assumed): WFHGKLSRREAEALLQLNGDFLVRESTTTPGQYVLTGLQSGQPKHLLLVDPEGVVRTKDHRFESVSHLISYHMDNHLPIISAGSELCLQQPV

Chain of Crk SH2 domain (P46108 13-118 limits assumed): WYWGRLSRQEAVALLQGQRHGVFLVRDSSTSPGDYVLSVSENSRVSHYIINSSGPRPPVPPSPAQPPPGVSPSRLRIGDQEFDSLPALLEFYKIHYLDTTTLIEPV
Chain of Sh2d1b SH2 domain (O14796 5-101 limits assumed): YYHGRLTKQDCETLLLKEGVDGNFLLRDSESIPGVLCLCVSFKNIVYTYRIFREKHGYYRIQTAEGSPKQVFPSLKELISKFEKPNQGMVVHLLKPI
Chain of CrkL SH2 domain (P46109 14-102 limits assumed): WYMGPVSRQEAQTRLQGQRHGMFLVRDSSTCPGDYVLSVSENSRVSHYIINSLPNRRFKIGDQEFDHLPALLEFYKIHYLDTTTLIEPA
Chain of Grb2 SH2 domain (P62993 60-152 limits assumed): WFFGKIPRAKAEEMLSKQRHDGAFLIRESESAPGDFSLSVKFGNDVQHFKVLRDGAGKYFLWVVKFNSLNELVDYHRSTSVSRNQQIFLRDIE

For “SLTIpYAQVQKA [11-mer phosphotyrosine control peptide, SLAM (Y280)]”, which Array positive (Sh2d1b SH2 domain) is on record?
Its Array positive is “Yes (Array-positive binding was ascribed to interactions with intensities greater than three times the array mean)”.

For “EDPIpYDEPEGL [11-mer phosphotyrosine peptide, p62DOK1 (Y362)]”, which “Other SH2 domains bound (additional array-positive SH2 domains)” value (panel of 50 SH2 domains) is on record?
The value was “Blk, Hck, Lck, Lyn, Shc1, Src”.

And the Array positive (Nck1 SH2 domain)?
Its Array positive is “Yes (Array-positive binding was ascribed to interactions with intensities greater than three times the array mean)”.

What about the Array positive (Abl1 SH2 domain) of the same substance?
The Array positive was “Yes (Array-positive binding was ascribed to interactions with intensities greater than three times the array mean)”.

What does the source list for “EIFTLGGSPpYPGVPVEED (EIFTLGGSPYPGVPVEED)”?
Kd (Abl2 SH2 domain [1]): 400 nM; Kd (Grb2 SH2 domain): 140 nM

What does the source list for SSKDLVSCApYQVARGMED?
Peptide array intensity (X mean) (Abl2 SH2 domain [2]): <2x X Mean; Peptide array intensity (X mean) (Crk SH2 domain): <2x X Mean; Peptide array intensity (X mean) (CrkL SH2 domain): <2x X Mean

With “HDGLpYQGLSTA (HDGLYQGLSTA) [11-mer phosphotyrosine control peptide, CD150 (Y142)]” as the substance, how does the Kd (Shc1 SH2 domain) read?
Its Kd is 50000 nM.
